Laboratory results taken from ChEMBL document CHEMBL3044601, “Movento®, an innovative ambimobile insecticide for sucking insect pest control in agriculture: Biological profile and field performance” (Crop Prot, 2009).
Values after ≈ are worked out from the molar mass of the structure shown.

Key:
Bemisia tabaci [1] = test: Resistance ratio, LC50 for second instar nymph of organophosphates-resistant Bemisia tabaci MEX03-02 (sweet potato whitefly) to LC50 for second instar nymph of Bemisia tabaci SUD-S; assay type: functional
Myzus persicae [2] = test: Insecticidal activity against Myzus persicae (green peach aphid) infected first leaf of cabbage plant assessed as phloem-systemic efficacy at 0.8 ug/plant treated with 2 g/L rapeseed oil methylester measured after 7 days on 3rd leaf by phloem mobility bioassay; assay type: functional
Myzus persicae [3] = test: Insecticidal activity against third-instar nymph of Myzus persicae NS (green peach aphid) in Brassica oleracea leaf disc after 3 days by leaf-dip bioassay; assay type: functional; settings: foliar, 72 h
[4] = Dissociation constant, pKa of the compound; assay type: physicochemical
Myzus persicae [5] = test: Resistance ratio, LC50 for third instar nymph of carbamates, pyrethroids-resistant Myzus persicae F04-01 (green peach aphid) to LC50 for third instar nymph of Myzus persicae NS; assay type: functional
Bemisia tabaci [6] = test: Resistance ratio, LC50 for second instar nymph of organophosphates-resistant Bemisia tabaci ESP-00 (sweet potato whitefly) to LC50 for second instar nymph of Bemisia tabaci SUD-S; assay type: functional
Bemisia tabaci [7] = test: Insecticidal activity against second instar nymph of organophosphates-resistant Bemisia tabaci ISR-02 (sweet potato whitefly) in cotton plant leaf after 10 days by leaf-dip bioassay; assay type: functional; settings: ISR-02, 240 h
Myzus persicae [8] = test: Insecticidal activity against Myzus persicae (green peach aphid) infected first leaf of cabbage plant assessed as phloem-systemic efficacy at 20 ug/plant treated with 2 g/L rapeseed oil methylester measured after 7 days on 3rd leaf by phloem mobility bioassay; assay type: functional
Bemisia tabaci [9] = test: Resistance ratio, LC50 for second instar nymph of organophosphates-resistant Bemisia tabaci ISR-02 (sweet potato whitefly) to LC50 for second instar nymph of Bemisia tabaci SUD-S; assay type: functional
Bemisia tabaci [10] = test: Resistance ratio, LC50 for second instar nymph of organophosphates-resistant Bemisia tabaci CRE04-01 (sweet potato whitefly) to LC50 for second instar nymph of Bemisia tabaci SUD-S; assay type: functional
Myzus persicae [11] = test: Insecticidal activity against Myzus persicae (green peach aphid) infected first leaf of cabbage plant assessed as phloem-systemic efficacy at 0.16 ug/plant treated with 2 g/L rapeseed oil methylester measured after 7 days on 3rd leaf by phloem mobility bioassay; assay type: functional
Myzus persicae [12] = test: Insecticidal activity against third-instar nymph of carbamates, pyrethroids-resistant Myzus persicae F04-01 (green peach aphid) in Brassica oleracea leaf disc after 3 days by leaf-dip bioassay; assay type: functional; settings: F04-01, foliar, 72 h
Myzus persicae [13] = test: Insecticidal activity against adult Myzus persicae (green peach aphid) in Brassica oleracea leaf disc treated with 1 g/L rapeseed oil methylester after 3 days by leaf-dip bioassay; assay type: functional
Bemisia tabaci [14] = test: Resistance ratio, LC50 for second instar nymph of organophosphates, pyrethroids, buprofezin, pyriproxyfen and pymetrozin-resistant Bemisia tabaci BR-JM03 (sweet potato whitefly) to LC50 for second instar nymph of Bemisia tabaci SUD-S; assay type: functional
[15] = Lipophilicity, log P of the compound; assay type: physicochemical; settings: octanol/water
Bemisia tabaci [16] = test: Insecticidal activity against second instar nymph of organophosphates-resistant Bemisia tabaci CRE04-01 (sweet potato whitefly) in cotton plant leaf after 10 days by leaf-dip bioassay; assay type: functional; settings: CRE04-01, 240 h
Myzus persicae [17] = test: Insecticidal activity against Myzus persicae (green peach aphid) infected first leaf of cabbage plant assessed as phloem-systemic efficacy at 0.032 ug/plant treated with 2 g/L rapeseed oil methylester measured after 7 days on 3rd leaf by phloem mobility bioassay; assay type: functional
Bemisia tabaci [18] = test: Insecticidal activity against second instar nymph of organophosphates-resistant Bemisia tabaci ESP-00 (sweet potato whitefly) in cotton plant leaf after 10 days by leaf-dip bioassay; assay type: functional; settings: ESP-00, 240 h
Myzus persicae [19] = test: Insecticidal activity against first instar nymph of Myzus persicae (green peach aphid) in Brassica oleracea leaf disc treated with 1 g/L rapeseed oil methylester after 3 days by leaf-dip bioassay; assay type: functional
Myzus persicae [20] = test: Insecticidal activity against third-instar nymph of carbamates, pyrethroids-resistant Myzus persicae JR (green peach aphid) in Brassica oleracea leaf disc after 3 days by leaf-dip bioassay; assay type: functional; settings: foliar, 72 h
Myzus persicae [21] = test: Insecticidal activity against Myzus persicae (green peach aphid) infected first leaf of cabbage plant assessed as phloem-systemic efficacy at 4 ug/plant treated with 2 g/L rapeseed oil methylester measured after 7 days on 3rd leaf by phloem mobility bioassay; assay type: functional
Bemisia tabaci [22] = test: Insecticidal activity against second instar nymph of organophosphates, pyrethroids, buprofezin, pyriproxyfen and pymetrozin-resistant Bemisia tabaci BR-JM03 (sweet potato whitefly) in cotton plant leaf after 10 days by leaf-dip bioassay; assay type: functional; settings: BR-JM03, 240 h
Myzus persicae [23] = test: Resistance ratio, LC50 for third instar nymph of carbamates, pyrethroids-resistant Myzus persicae JR (green peach aphid) to LC50 for third instar nymph of Myzus persicae NS; assay type: functional
Bemisia tabaci [24] = test: Insecticidal activity against second instar nymph of organophosphates-resistant Bemisia tabaci MEX03-02 (sweet potato whitefly) in cotton plant leaf after 10 days by leaf-dip bioassay; assay type: functional; settings: MEX03-02, 240 h
Myzus persicae [25] = test: Insecticidal activity against Myzus persicae (green peach aphid) infected first leaf of cabbage plant assessed as phloem-systemic efficacy at 100 ug/plant treated with 2 g/L rapeseed oil methylester measured after 7 days on 3rd leaf by phloem mobility bioassay; assay type: functional
Bemisia tabaci [26] = test: Insecticidal activity against second instar nymph of Bemisia tabaci SUD-S (sweet potato whitefly) in cotton plant leaf after 10 days by leaf-dip bioassay; assay type: functional; settings: 240 h

Work on `CCOC(=O)OC1=C(c2cc(C)ccc2C)C(=O)N[C@]12CC[C@@H](OC)CC2` [SPIROTETRAMAT] yielded a RatioLC50 (Bemisia tabaci [1]) of 1.9, an Efficacy (Myzus persicae [2]) of 56.7% and an LC50 (Myzus persicae [3]) of 0.69 µg/mL (≈ 1.85 µM). It also gave a pKa [4] of 5.2, a RatioLC50 (Myzus persicae [5]) of 0.4 and a RatioLC50 (Bemisia tabaci [6]) of 2.8. It also gave an LC50 (Bemisia tabaci [7]) of 0.72 µg/mL (≈ 1.93 µM), an Efficacy (Myzus persicae [8]) of 100% and a RatioLC50 (Bemisia tabaci [9]) of 2.8. The RatioLC50 (Bemisia tabaci [10]) was 3.8, the Efficacy (Myzus persicae [11]) was 22.5% and the LC50 (Myzus persicae [12]) was 0.27 µg/mL (≈ 0.723 µM). For the same compound, the LC95 (Myzus persicae [13]) was 22 ppm, the RatioLC50 (Bemisia tabaci [14]) was 2.5 and the logP [15] was 0.3. For the same compound, the LC50 (Bemisia tabaci [16]) was 1 µg/mL (≈ 2.68 µM), the Efficacy (Myzus persicae [17]) was 8.8% and the LC50 (Bemisia tabaci [18]) was 0.74 µg/mL (≈ 1.98 µM). It also gave an LC95 (Myzus persicae [19]) of 0.73 ppm, an LC50 (Myzus persicae [20]) of 0.59 µg/mL (≈ 1.58 µM) and an Efficacy (Myzus persicae [21]) of 85.6%. The LC50 (Bemisia tabaci [22]) was 0.64 µg/mL (≈ 1.71 µM), the RatioLC50 (Myzus persicae [23]) was 0.9 and the LC50 (Bemisia tabaci [24]) was 0.49 µg/mL (≈ 1.31 µM). It also gave an Efficacy (Myzus persicae [25]) of 100% and an LC50 (Bemisia tabaci [26]) of 0.26 µg/mL (≈ 0.696 µM).
